Results reported in ChEMBL document CHEMBL5465560, “Selectivity Literature for EUbOPEN Chemogenomic Library” (2024).

How the values were obtained:
[1] = target: T1, Mitogen-activated protein kinase 12 (Homo sapiens) (UniProt P53778); experiment: Selectivity interaction (KinomeScan (DiscoverX)) EUB0000229b MAPK12; conditions: at 10 µM
T1 sequence (whole entry): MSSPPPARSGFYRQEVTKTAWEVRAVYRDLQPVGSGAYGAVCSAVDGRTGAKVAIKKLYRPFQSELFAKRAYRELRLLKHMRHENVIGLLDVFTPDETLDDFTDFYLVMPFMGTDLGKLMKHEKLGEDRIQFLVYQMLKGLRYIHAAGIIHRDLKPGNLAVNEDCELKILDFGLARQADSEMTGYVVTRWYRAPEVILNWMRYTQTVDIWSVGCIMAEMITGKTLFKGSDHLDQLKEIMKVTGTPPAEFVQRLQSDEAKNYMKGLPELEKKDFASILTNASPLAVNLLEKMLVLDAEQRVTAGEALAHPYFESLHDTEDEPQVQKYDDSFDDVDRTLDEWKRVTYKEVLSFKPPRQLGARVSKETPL

[2] = target: ATPase family AAA domain-containing protein 2B (Homo sapiens) (UniProt Q9ULI0); experiment: Selectivity interaction (Bromodomain panel (DSF asssay)) EUB0000270b ATAD2B
[3] = target: cAMP-dependent protein kinase catalytic subunit alpha (Homo sapiens, UniProt P17612); experiment: Selectivity interaction (KinomeScan (DiscoverX)) EUB0001049a PRKACA; conditions: at 1 µM
[4] = target: Proto-oncogene tyrosine-protein kinase receptor Ret (Homo sapiens, UniProt P07949); experiment: Selectivity interaction (KinaseProfiler screening (Millipore)) EUB0000601a RET; conditions: at 3 µM
[5] = target: Serine/threonine-protein kinase WNK1 (Homo sapiens) (UniProt Q9H4A3); experiment: Selectivity interaction (ActivX KiNativ screen (kinase selectivity in THP-1 cell lysates)) EUB0000639a WNK1; format: subcellular; conditions: lysate, at 0.01 µM
[6] = target: T2, Serine/threonine-protein kinase LATS1 (Homo sapiens) (UniProt O95835); conditions: at 10 µM
T2 sequence (whole entry): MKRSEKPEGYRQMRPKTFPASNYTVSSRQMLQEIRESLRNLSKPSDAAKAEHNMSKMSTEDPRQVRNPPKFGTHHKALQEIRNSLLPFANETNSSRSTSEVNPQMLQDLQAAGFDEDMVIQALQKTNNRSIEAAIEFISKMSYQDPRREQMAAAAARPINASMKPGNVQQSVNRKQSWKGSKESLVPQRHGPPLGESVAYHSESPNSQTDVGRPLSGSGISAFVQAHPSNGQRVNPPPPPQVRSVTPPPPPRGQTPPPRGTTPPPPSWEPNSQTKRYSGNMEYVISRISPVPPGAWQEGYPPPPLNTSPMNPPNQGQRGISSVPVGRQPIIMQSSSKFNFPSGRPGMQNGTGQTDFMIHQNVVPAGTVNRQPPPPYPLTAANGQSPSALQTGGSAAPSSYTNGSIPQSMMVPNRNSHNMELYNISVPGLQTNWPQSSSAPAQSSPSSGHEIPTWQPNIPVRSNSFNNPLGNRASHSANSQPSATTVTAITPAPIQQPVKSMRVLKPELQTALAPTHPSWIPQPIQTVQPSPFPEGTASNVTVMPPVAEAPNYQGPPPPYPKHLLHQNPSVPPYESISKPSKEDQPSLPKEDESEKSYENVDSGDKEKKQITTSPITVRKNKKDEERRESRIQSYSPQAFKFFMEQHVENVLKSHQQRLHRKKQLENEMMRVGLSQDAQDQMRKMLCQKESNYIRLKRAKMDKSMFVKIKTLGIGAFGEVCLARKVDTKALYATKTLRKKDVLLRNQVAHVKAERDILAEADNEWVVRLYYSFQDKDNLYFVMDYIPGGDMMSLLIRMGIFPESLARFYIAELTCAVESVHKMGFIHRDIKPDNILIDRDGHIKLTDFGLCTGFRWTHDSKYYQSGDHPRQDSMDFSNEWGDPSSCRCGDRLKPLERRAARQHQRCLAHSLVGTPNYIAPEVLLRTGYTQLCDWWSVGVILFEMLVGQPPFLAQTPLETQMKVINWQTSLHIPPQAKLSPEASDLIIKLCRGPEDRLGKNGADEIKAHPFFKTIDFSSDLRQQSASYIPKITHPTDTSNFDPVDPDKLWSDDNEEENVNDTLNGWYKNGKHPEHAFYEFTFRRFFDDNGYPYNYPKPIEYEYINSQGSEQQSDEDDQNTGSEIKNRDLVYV

[7] = target: T3, Mitogen-activated protein kinase kinase kinase 13 (Homo sapiens) (UniProt O43283); experiment: Selectivity interaction (Ambit KINOMEscan and KiNATiv profiling in Jurkat cells) EUB0000090b MAP3K13; format: cell-based; conditions: at 1 µM
T3 sequence (whole entry): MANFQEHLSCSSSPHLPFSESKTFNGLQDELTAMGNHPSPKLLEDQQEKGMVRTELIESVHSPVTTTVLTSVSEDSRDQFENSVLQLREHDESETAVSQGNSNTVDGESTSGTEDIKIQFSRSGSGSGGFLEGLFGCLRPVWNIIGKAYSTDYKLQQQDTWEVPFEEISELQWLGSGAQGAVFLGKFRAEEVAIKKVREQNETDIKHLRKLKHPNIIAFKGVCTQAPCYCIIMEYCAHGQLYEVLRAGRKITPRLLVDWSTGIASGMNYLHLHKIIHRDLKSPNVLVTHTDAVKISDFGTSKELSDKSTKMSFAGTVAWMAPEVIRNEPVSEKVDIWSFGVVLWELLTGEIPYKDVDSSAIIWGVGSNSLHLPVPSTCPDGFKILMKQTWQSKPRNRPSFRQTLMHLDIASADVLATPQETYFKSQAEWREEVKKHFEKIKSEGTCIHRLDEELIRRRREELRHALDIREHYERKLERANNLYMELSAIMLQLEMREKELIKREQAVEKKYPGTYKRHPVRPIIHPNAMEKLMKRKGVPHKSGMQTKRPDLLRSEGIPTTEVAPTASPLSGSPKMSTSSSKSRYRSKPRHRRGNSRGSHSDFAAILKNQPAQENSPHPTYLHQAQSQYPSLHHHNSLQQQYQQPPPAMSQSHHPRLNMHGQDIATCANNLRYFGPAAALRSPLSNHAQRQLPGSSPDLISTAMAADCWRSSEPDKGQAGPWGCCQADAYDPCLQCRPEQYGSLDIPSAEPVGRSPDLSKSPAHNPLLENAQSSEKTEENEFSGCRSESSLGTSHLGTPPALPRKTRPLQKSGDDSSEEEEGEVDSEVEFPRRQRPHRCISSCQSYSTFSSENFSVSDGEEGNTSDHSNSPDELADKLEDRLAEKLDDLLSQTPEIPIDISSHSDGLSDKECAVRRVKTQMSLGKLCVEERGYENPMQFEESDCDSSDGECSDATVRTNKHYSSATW

[8] = target: Tyrosine-protein kinase ABL1 (Homo sapiens, UniProt P00519); experiment: Selectivity interaction (Ambit KINOMEscan and KiNATiv profiling in Jurkat cells) EUB0000090b ABL1; format: cell-based; conditions: at 1 µM
Tyrosine-protein kinase ABL1, sequence (P00519 whole entry): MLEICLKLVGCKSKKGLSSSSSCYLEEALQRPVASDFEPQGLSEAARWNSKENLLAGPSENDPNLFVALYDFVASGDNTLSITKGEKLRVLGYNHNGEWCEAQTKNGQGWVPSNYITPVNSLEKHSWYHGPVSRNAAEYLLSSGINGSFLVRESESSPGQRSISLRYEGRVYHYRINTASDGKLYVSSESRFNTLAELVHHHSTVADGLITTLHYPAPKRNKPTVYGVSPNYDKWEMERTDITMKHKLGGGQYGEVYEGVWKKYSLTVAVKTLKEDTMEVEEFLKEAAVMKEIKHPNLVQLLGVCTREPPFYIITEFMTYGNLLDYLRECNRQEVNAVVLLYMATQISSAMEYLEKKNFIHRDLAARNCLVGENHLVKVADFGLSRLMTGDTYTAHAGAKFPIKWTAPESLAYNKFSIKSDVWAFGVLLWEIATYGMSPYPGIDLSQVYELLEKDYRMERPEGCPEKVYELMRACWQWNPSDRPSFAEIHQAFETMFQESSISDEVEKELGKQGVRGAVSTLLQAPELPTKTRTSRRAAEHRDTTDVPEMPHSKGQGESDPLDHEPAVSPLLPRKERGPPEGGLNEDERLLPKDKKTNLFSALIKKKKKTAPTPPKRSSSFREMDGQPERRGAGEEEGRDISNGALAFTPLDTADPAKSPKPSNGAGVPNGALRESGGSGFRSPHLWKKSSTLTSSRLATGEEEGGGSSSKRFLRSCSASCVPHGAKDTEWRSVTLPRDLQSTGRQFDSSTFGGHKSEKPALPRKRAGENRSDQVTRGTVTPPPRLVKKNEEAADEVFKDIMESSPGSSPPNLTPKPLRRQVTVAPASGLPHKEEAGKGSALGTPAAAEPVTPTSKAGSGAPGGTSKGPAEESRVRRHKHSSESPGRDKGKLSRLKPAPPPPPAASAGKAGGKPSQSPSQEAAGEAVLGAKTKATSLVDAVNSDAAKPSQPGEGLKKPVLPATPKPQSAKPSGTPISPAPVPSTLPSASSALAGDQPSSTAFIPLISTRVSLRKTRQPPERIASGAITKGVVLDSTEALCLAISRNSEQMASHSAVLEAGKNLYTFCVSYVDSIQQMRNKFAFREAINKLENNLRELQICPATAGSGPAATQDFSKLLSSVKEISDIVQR

ATPase family AAA domain-containing protein 2B (Homo sapiens), sequence (Q9ULI0 whole entry, the tested form may be a part): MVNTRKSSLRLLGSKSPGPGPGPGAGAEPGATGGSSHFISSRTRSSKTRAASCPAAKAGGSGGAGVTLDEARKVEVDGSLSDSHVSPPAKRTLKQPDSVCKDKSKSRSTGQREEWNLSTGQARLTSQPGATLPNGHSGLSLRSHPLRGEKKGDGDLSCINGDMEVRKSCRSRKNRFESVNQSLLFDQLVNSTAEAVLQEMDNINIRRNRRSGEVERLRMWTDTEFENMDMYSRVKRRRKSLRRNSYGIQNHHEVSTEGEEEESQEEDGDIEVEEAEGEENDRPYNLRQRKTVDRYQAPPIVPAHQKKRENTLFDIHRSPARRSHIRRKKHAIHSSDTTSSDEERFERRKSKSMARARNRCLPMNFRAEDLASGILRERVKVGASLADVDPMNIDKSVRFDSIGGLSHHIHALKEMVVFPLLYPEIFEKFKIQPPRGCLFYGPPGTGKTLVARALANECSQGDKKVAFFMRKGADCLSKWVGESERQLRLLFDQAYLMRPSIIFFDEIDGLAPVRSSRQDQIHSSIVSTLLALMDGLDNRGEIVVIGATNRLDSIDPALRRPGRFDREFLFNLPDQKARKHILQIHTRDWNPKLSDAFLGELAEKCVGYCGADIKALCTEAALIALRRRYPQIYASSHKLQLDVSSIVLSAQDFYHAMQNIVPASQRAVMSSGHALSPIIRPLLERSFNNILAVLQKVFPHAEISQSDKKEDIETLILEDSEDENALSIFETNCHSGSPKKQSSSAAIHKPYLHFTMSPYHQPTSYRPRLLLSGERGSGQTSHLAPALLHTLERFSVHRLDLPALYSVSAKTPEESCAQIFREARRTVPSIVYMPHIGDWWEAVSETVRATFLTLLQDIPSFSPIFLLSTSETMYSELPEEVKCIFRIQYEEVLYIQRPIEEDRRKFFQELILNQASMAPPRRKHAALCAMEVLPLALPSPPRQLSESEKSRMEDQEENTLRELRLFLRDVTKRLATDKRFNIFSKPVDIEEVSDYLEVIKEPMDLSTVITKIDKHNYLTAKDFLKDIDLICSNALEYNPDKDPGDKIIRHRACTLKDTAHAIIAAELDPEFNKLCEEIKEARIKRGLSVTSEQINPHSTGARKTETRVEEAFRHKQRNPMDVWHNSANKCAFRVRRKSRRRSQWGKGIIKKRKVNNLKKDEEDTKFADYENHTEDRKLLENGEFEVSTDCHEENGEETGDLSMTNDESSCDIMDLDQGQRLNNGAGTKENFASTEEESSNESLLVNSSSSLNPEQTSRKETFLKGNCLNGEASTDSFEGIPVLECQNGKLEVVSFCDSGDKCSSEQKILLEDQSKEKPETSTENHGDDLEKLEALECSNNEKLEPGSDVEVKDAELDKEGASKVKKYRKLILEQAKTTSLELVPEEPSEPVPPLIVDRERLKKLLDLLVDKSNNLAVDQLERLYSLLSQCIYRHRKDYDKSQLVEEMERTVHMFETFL
Serine/threonine-protein kinase WNK1 (Homo sapiens), sequence (Q9H4A3 whole entry, looked up): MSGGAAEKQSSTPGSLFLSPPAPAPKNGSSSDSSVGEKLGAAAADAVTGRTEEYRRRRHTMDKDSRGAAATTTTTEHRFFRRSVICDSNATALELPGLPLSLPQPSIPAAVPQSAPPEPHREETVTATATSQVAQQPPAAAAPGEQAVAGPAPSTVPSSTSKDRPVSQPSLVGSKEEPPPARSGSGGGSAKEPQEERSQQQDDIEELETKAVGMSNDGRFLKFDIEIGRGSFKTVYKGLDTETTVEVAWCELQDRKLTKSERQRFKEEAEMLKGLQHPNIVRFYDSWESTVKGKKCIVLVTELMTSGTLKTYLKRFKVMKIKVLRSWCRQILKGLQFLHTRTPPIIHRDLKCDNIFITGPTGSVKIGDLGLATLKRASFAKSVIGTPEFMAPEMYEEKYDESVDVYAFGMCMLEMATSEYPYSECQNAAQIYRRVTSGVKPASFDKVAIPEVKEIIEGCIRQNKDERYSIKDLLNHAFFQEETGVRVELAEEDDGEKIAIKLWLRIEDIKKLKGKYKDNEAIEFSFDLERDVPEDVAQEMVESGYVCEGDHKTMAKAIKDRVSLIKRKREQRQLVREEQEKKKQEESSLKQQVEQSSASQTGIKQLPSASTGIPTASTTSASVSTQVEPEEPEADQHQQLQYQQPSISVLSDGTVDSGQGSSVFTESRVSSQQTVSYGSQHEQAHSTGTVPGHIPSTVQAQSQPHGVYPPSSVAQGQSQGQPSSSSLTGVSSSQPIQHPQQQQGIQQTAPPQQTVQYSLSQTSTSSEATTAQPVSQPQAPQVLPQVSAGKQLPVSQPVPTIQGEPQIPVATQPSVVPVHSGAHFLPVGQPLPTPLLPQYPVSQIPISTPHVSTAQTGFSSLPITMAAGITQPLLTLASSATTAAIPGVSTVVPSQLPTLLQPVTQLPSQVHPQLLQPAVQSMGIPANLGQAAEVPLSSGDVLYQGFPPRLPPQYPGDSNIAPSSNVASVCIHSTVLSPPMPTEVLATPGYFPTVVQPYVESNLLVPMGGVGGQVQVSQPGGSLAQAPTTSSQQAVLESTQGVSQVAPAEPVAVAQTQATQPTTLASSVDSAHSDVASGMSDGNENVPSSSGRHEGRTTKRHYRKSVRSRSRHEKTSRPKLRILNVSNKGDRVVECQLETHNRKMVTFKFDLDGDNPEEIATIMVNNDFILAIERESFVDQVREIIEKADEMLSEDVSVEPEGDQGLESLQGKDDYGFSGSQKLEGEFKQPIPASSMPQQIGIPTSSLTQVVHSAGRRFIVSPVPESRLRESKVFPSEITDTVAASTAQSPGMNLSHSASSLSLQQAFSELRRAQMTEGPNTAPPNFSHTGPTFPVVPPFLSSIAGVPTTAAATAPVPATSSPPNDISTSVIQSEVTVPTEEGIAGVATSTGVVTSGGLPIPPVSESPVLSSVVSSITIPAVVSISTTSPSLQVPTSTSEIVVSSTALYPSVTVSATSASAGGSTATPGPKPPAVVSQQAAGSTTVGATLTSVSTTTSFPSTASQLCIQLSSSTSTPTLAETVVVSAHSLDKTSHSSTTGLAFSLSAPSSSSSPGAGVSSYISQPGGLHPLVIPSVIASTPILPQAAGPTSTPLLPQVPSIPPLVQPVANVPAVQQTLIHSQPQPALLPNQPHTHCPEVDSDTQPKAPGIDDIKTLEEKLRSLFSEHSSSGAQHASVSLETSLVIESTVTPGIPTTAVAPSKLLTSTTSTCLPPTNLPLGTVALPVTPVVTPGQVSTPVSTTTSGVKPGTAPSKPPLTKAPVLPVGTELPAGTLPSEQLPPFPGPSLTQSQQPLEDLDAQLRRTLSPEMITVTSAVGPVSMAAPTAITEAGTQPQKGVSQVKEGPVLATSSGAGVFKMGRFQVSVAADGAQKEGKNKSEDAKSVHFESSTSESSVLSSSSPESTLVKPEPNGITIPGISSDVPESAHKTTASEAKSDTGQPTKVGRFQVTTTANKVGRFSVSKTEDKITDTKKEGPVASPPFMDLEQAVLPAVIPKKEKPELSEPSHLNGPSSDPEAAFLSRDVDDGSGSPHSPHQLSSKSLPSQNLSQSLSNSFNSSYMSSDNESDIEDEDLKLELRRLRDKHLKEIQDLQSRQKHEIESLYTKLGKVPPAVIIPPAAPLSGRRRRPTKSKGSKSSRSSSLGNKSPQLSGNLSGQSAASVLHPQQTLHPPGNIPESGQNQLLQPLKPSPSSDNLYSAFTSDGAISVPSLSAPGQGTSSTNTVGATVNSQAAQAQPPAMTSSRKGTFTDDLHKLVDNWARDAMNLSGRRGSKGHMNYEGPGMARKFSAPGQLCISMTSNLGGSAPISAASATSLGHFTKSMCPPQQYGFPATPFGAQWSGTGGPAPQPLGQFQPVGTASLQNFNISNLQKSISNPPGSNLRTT

## COc1cc(N(C)c2ccnc3ccc(C(F)(F)F)cc23)cc(OC)c1OC
[1]
  % binding: 100%

## Cc1cc(CN)cc(C)c1-c1ncn(C)c1-c1cncn1C
[2]
  dTM: -1.47 K

## COc1cc(Nc2nc(C)cc(-c3cnn4nc(OC)ccc34)n2)cc(C(F)(F)F)c1
[3]
  % of control: 92%

## CCc1cc(Nc2nccc(-c3c(-c4ccc(OC)c(C(=O)Nc5c(F)cccc5F)c4)nc4ccccn34)n2)c(OC)cc1N1CCC(N2CCN(S(C)(=O)=O)CC2)CC1
[4]
  % of inhibition: 52%

## CC[C@@H]1[C@H](F)C(=O)N[C@@H]1COc1nccc2cc(C(N)=O)c(OC)cc12 [ZIMLOVISERTIB]
[5]
  % of inhibition: 3.3%

## CCN(CC)CCCCNc1ncc2cc(-c3cc(OC)cc(OC)c3)c(NC(=O)NC(C)(C)C)nc2n1
[6]
  % of control: 100%

## CN(C)C/C=C/C(=O)Nc1ccc(C(=O)N2CCCC(Nc3ncc(Cl)c(-c4c[nH]c5ccccc45)n3)C2)cc1 (stereo not drawn)
[7]
  % of control: 95%
[8]
  % of control: 97%
